Data reported in patent publication US11690911B2, “Combination of ATR kinase inhibitors and PD-1/PD-L1 inhibitors” (Bayer Pharma Aktiengesellschaft, priority 2017, dated 2023).

Tests used:
[1] = test system: murine syngeneic lymphoma model A20; details: mouse, in vivo, po, 50 mg/kg
Method: (§1) KLN205) or three (CT26 and MC38 study 1) or only one (MC38 study 2) different combination schedules were tested:
(§2) The oral application volume was 10 ml/kg and the intravenous application volume 5 ml/kg. The time interval between two applications per day was 6-7 h. The tumor size and the body weight were determined three times weekly. Changes in the body weight were a measure of treatment-related toxicity (>10%=critical, stop of treatment until recovery, >20%=toxic, termination). The tumor volume was detected by means of an electronic caliper gauge [0.5×length in mm×(width in mm)^2]. Animals for which the tumor volume exceeded 2000 mm^3 (or for which the mean tumor volume of the group exceeds 2000 mm^3) were euthanized. In vivo anti-tumor efficacy is presented as T/C ratio (Treatment/Control) calculated with tumor volumes at day of control group termination by the formula [(tumor volume of treatment group at day x)−(tumor volume of treatment group at day before first treatment)]/[(tumor volume control group at day x)−(tumor volume of control group at day before first treatment)]. […] Statistical analysis was assessed using SigmaStat software. A one-way analysis of variance was performed and differences to the control were compared by a pair-wise comparison procedure (Dunn's method).

[2] = test system: murine syngeneic lung carcinoma model KLN205; details: mouse, in vivo
Method: as §1, §2

[3] = test system: murine syngeneic colon carcinoma model CT26; details: mouse, in vivo, po, 50 mg/kg
Method: as §1, §2

For C[C@@H]1COCCN1c1cc(-c2ccnn2C)c2ccnc(-c3ccn[nH]3)c2n1 [Compound A, 2-[(3R)-3-methylmorpholin-4-yl]-4-(1-methyl-1H-pyrazol-5-yl)-8-(1H-pyrazol-5-yl)-1,7-naphthyridine], the “Max. weight loss (%)” value [1] was −2%, the “Max. weight loss (%)” value [2] was −19 (d9) % and the “body weight loss (in words)” value [2] was “critical body weight loss”. For the same molecule, the “Max. weight loss (%)” value [3] was −1%.
